Measured values taken from patent EP4799619A1, “COMPOUND TARGETING EGR-1 AND USE THEREOF FOR TREATMENT OF ATOPIC DERMATITIS” (AgeraMedi, Inc., priority 2023, dated 2025).

What was measured:
[1] = system: animal model of atopic dermatitis; experiment: DNCB-induced animal model of atopic dermatitis, topical application; type: in vivo, BALB/c mice; details: 0.1% applied to ear; for epidermal thickness / dermal thickness: day 22, H&E staining; for epidermal thickness: normal 24.47±2.353, DNCB only 37.27±4.393; for dermal thickness: normal 143.2±19.61, DNCB only 197.5±17.83; for expression of filaggrin / expression of TSLP: immunofluorescence of skin tissue; for expression of filaggrin: FIG. 17B; for expression of TSLP: compared to positive control group, FIG. 17A; for expression of MPO (neutrophil marker) / expression of F4/80 (macrophage marker): immunohistochemistry; for expression of MPO (neutrophil marker): FIG. 16C; for expression of F4/80 (macrophage marker): FIG. 16D; for mast cell infiltration / number of mast cells infiltrated: toluidine blue staining; for mast cell infiltration: compared to the positive control group, FIG. 16A; for number of mast cells infiltrated: normal 11±3, DNCB 38±6; for macroscopic skin condition: day 22, FIG. 15B
EGR-1 [2] = molecular target: T1, EGR-1 (Homo sapiens, UniProt P18146); experiment: EGR-1 DNA binding activity assay (EDBA); design: made in house; details: EGR-1 DNA binding inhibitory activity; EGR-1 overexpressing cell lysate; absorbance at 450 nm; compound concentration not given
Procedure, shortened: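 Compound pre-incubated 30 min at room temperature with EGR-1-overexpressing cell lysate (10 mM Tris pH 7.5, 50 mM KCl, 2% BSA, 8% glycerol), then 1 h on avidin-immobilised biotin-EBS duplex DNA. Bound EGR-1 detected by antibody ELISA with HRP/TMB at 450 nm; % inhibition versus lysate-only wells.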

IL-6 = experiment: RT-PCR of EGR-1 target gene mRNA in TNFα-stimulated HaCaT cells: IL-6; type: cell-based, human; details: 0, 5, 10, and 20 µM for 30 minutes, then TNFα 10 ng/mL for 12 hours, FIG. 14
Description: (§1) To determine whether the compounds of the present invention (Compounds 21, 23, and 25) inhibit expression of TSLP, IL-1β, and IL-6 genes, which are EGR-1 target genes playing a key role in atopic dermatitis exacerbation, the inhibitory effect of the compounds on mRNA expression of an EGR-1 target gene TSLP was evaluated by reverse transcription-polymerase chain reaction (RT-PCR) in HaCaT keratinocyte cells.
(§2) Specifically, HaCaT keratinocyte cells (purchased from Cell Lines Service, Eppelheim, Germany) were passaged at a seeding density of 1x10^6 cells per 100 mm cell culture dish in Dulbecco's modified Eagle's medium (Invitrogen Life Technologies) containing 10% fetal bovine serum (Invitrogen Life Technologies) and antibiotic-antifungal agent mix solution (Invitrogen Life Technologies), once every two days, and cultured at 37 °C in a 5% CO2 incubator.
(§3) HaCaT cells were treated with the compounds of the present invention (Compound 21, Compound 23, and Compound 25) at concentrations of 0, 5, 10, and 20 µM, respectively, for 30 minutes, followed by treatment with TNFα in a concentration of 10 ng/mL for 12 hours, after which the cells were harvested. Total RNA was extracted using TRIzol RNA isolation reagents (TRIzol Life Technologies Korea). A total of 0.5 µg of total RNA was reverse transcribed to synthesize complementary DNA (cDNA) according to the method recommended by the manufacturer using an iScript cDNA synthesis kit (Bio-Rad, Hercules, Calif., U.S.A.). PCR was performed using 0.0125 µg of double-stranded cDNA.
(§4) Glyceraldehyde-3-phosphate dehydrogenase (GAPDH), a housekeeping gene, was used as the control group. The double-stranded cDNA was denatured at 95 °C for 5 minutes and then subjected to cycles of reaction at 94 °C for 1 minute, 65 °C for 2 minutes, and 70 °C for 1 minute, repeated 30 times. The final product of PCR was electrophoresed on 1% agarose gel, stained with ethidium bromide (EtBr), and confirmed.

IL-1β = experiment: RT-PCR of EGR-1 target gene mRNA in TNFα-stimulated HaCaT cells: IL-1β; type: cell-based, human; details: 0, 5, 10, and 20 µM for 30 minutes, then TNFα 10 ng/mL for 12 hours, FIG. 14
Description: as §1, §2, §3, §4

EGR-1 [3] = molecular target: T1, EGR-1; experiment: Electrophoretic mobility shift assay (EMSA) of EGR-1 DNA binding; design: made in house; host or cells: Sf21 insect cells (crude cell extract); details: EGR-1 overexpressing Sf21 cell extract, biotin-labeled probe; FIG. 13
Description: When a nucleic acid and a protein are bound to each other, the complex of the nucleic acid and the protein moves more slowly than the nucleic acid alone, so that in an EMSA, a band of the nucleic acid bound to the protein appears higher than a band of only the nucleic acid.
In detail, the protein-DNA binding was analyzed by purchasing a LightShift Chemiluminescence EMSA kit (ThermoFisher Scientific, Waltham, MA, USA). The probe sequence for EGR-1 was synthesized by Macrogen company (Seoul, Korea) by ordering a deoxynucleotide labeled with biotin at the EGR-1 binding sequence (5'-biotin-AGAGTGTGTCTCCTTCGCACACATC-3'). The EGR-1 protein used in the experiment was an Sf21 insect cell extract overexpressing human EGR-1 protein as described in Yeo et al. [Journal of Investigative Dermatology 2021; 141:1851-1855]. Wild-type Sf21 cell extract was used as a negative control. After reacting 3 µg of EGR-1 overexpressing Sf21 cell extract, 1 µl of the compound of the present invention at a concentration of 20 mM, 50 fmol of the biotin-labeled EGR-1 binding deoxyoligonucleotide probe, and 1 µg poly(dI-dC) (Amersham Pharmacia Biotech Inc) for 20 minutes, electrophoresis was performed on a 6% non-denaturing polyacrylamide gel. The electrophoresed sample was transferred to a nylon membrane (Immobilon-Ny+ Transfer membrane, Millipore) and soaked in 5% skim milk solution for 30 minutes. Then, horseradish peroxidase-conjugated streptavidin was added and reacted for 15 minutes, and after washing unbound proteins from the membrane, the EGR-1-DNA complex was detected on X-ray film using an enhanced chemiluminescence (ECL) detection system (ThermoFisher Scientific). The intensity of the EGR-1-DNA complex band was analyzed using the ImageJ program (National Institute of Health, USA), and the intensity of the sample without the compound was set to 100%, and relative intensities were measured.

TSLP = experiment: RT-PCR of EGR-1 target gene mRNA in TNFα-stimulated HaCaT cells: TSLP; type: cell-based, human; details: 0, 5, 10, and 20 µM for 30 minutes, then TNFα 10 ng/mL for 12 hours, FIG. 14
Description: as §1, §2, §3, §4

T1 sequence (P18146 whole entry): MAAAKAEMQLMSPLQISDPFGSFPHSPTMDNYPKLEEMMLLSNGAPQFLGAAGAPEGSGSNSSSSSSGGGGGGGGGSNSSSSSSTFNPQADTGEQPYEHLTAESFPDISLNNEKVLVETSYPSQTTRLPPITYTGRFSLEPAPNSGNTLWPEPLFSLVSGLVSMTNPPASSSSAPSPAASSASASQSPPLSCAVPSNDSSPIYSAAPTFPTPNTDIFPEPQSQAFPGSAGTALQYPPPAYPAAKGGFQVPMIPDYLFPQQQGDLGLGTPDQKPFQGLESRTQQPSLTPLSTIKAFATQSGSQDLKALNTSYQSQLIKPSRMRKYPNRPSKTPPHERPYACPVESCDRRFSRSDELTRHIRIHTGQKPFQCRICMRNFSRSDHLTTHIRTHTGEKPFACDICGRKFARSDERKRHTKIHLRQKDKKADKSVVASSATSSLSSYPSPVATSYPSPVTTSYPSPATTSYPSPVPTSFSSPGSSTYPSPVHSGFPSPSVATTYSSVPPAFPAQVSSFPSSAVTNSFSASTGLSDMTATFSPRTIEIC

| SMILES | epidermal thickness [1] | dermal thickness [1] | expression of filaggrin [1] | expression of TSLP [1] | expression of MPO (neutrophil marker) [1] | expression of F4/80 (macrophage marker) [1] | mast cell infiltration [1] | number of mast cells infiltrated [1] | Inhibition Rate (%) (EGR-1 [2]) | expression level of IL-6 mRNA (IL-6) | expression level of IL-1β mRNA (IL-1β) | DNA binding of EGR-1 (EGR-1-DNA complex band) (EGR-1 [3]) | macroscopic skin condition [1] | expression level of TSLP mRNA (TSLP) |
| --- | --- | --- | --- | --- | --- | --- | --- | --- | --- | --- | --- | --- | --- | --- |
| C[C@@H]1CCN(C(=O)CC#N)C[C@@H]1N(C)c1ncnc2[nH]ccc12 [tofacitinib, Tofacitinib, reference compound] | 27.09±1.719 µm | 154.5±11.32 µm | recovered to a level similar to normal tissue | significantly decreased | decreased similar to normal tissue | decreased similar to normal tissue | significantly reduced | 14±5 per 2.5 cm^2 |  |  |  |  |  |  |
| O=C1Nc2c(F)cccc2/C1=N/NC(=S)Nc1ccc(C(F)(F)F)cc1 [Compound 21, (Z)-2-(7-fluoro-2-oxoindolin-3-ylidene)-N-(4-(trifluoromethyl)phenyl)hydrazinethioamide] | 25.22±2.993 µm | 163.4±7.905 µm | recovered to a level similar to normal tissue | significantly decreased | decreased similar to normal tissue | decreased similar to normal tissue | significantly reduced | 18±2 per 2.5 cm^2 | 70.20% | decreased dose-dependently | decreased dose-dependently | inhibited DNA binding of EGR-1 in a concentration-dependent manner | significant improvement in skin condition | decreased dose-dependently |
| COc1ccc2c(c1)NC(=O)/C2=N\NC(=S)Nc1ccc(C#N)cc1 [Compound 25, (Z)-N-(4-cyanophenyl)-2-(6-methoxy-2-oxoindolin-3-ylidene)hydrazinethioamide] | 23.46±1.530 µm | 157.8±17.05 µm | recovered to a level similar to normal tissue | significantly decreased | decreased similar to normal tissue | decreased similar to normal tissue | significantly reduced | 15±5 per 2.5 cm^2 | 76.13% | decreased dose-dependently | decreased dose-dependently | inhibited DNA binding of EGR-1 in a concentration-dependent manner | significant improvement in skin condition | decreased dose-dependently |
| COc1ccc2c(c1)NC(=O)/C2=N\NC(=S)Nc1cccc([N+](=O)[O-])c1 [Compound 23, (Z)-2-(6-methoxy-2-oxoindolin-3-ylidene)-N-(3-nitrophenyl)hydrazin-1-carbothioamide] | 22.92±3.617 µm | 147.5±8.302 µm | recovered to a level similar to normal tissue | significantly decreased | decreased similar to normal tissue | decreased similar to normal tissue | significantly reduced | 19±5 per 2.5 cm^2 | 67.63% | decreased dose-dependently | decreased dose-dependently | inhibited DNA binding of EGR-1 in a concentration-dependent manner | significant improvement in skin condition | decreased dose-dependently |
| Cc1ccc2c(c1)/C(=N/NC(=S)Nc1ccc(C#N)cc1)C(=O)N2 [Compound 71, (Z)-N-(4-cyanophenyl)-2-(5-methyl-2-oxoindolin-3-ylidene)hydrazinethioamide] |  |  |  |  |  |  |  |  | 29.93% |  |  |  |  |  |
